According to patent US5717110A, “UCH15 compounds” (Kyowa Hakko Kogyo Co., Ltd., priority 1995, dated 1998):
In brackets after ≈: the same amount, converted by molar mass.

Key:
[1] = test system: Hela S3 cells (ATCC HTB22); assay: Growth inhibition on Hela S3 cells; format: cell-based; conditions: Homo sapiens, 72 hours incubation, Giemsa staining, read-out: IC50 against the cell growth
Protocol: Into each well of a 96-well microtiter plate was pipetted 0.1 ml of a 3.0×10^4 cells/ml suspension of Hela S3 cells (ATCC HTB22) in DEM medium containing 10% of fetal calf serum (manufactured by Nissui, hereinafter referred to as "medium A"). This plate was incubated in a carbon dioxide gas incubator at 37° C. for 20 hours. Then, 0.1 ml of the test compound, which had been appropriately diluted with the medium A, was added to each well followed by incubation in the carbon dioxide gas incubator at 37° C. for additional 72 hours. After having removed the culture supernatant, the residue was washed with physiological saline once and treated with 0.1 ml of methanol for 10 minutes to thereby fix the cells. Next, the cells were stained with 0.1 ml of Giemsa's staining solution [stock solution for Giemsa's staining Merck Art 9204 (manufactured by Merck): physiological saline=1:10] for 5 minutes. After having removed the staining solution, the residue was washed with 0.2 ml of water once. Then, the pigment was extracted with 0.2 ml of 0.1N hydrochloric acid, and the absorbance was measured at 620 nm by the use of a microplate reader. From the result of the measurement, the increased amount of the grown cells was determined. […]

[2] = test system: Proteus vulgaris ATCC 6897; assay: Antibacterial activity, agar dilution method (MIC); format: cell-based; conditions: ATCC6897, medium pH 7, read-out: Minimum Inhibitory Concentration
Protocol: (§1) These antibacterial activities were determined by the agar dilution method with the use of a medium (pH 7) comprising 3 g/liter of bactotryptone (manufactured by Difco), 3 g/liter of meat extract, 1 g/liter of yeast extract, 1 g/liter of glucose and 16 g/liter of agar.

[3] = test system: Enterococcus hirae ATCC 10541; assay: Antibacterial activity, agar dilution method (MIC); format: cell-based; conditions: ATCC10541, medium pH 7, read-out: Minimum Inhibitory Concentration
Protocol: as §1

[4] = test system: Staphylococcus aureus ATCC 6538P; assay: Antibacterial activity, agar dilution method (MIC); format: cell-based; conditions: ATCC6538P, medium pH 7, read-out: Minimum Inhibitory Concentration
Protocol: as §1

[5] = test system: Klebsiella pneumoniae ATCC 10031; assay: Antibacterial activity, agar dilution method (MIC); format: cell-based; conditions: ATCC10031, medium pH 7, read-out: Minimum Inhibitory Concentration
Protocol: as §1

[6] = test system: Bacillus subtilis No. 10707; assay: Antibacterial activity, agar dilution method (MIC); format: cell-based; conditions: medium pH 7, read-out: Minimum Inhibitory Concentration
Protocol: as §1

[7] = test system: Salmonella choleraesuis ATCC 9992; assay: Antibacterial activity, agar dilution method (MIC); format: cell-based; conditions: Salmonella enterica, pH 7, read-out: Minimum Inhibitory Concentration
Protocol: as §1

[8] = test system: Shigella sonnei ATCC 9290; assay: Antibacterial activity, agar dilution method (MIC); format: cell-based; conditions: ATCC9290, medium pH 7, read-out: Minimum Inhibitory Concentration
Protocol: as §1

[9] = test system: Pseudomonas aeruginosa Bin H No. 1; assay: Antibacterial activity, agar dilution method (MIC); format: cell-based; conditions: medium pH 7, read-out: Minimum Inhibitory Concentration
Protocol: as §1

[10] = test system: Candida albicans ATCC 10231; assay: Antibacterial activity, agar dilution method (MIC); format: cell-based; conditions: ATCC10231, medium pH 7, read-out: Minimum Inhibitory Concentration
Protocol: as §1

[11] = test system: Escherichia coli ATCC 26; assay: Antibacterial activity, agar dilution method (MIC); format: cell-based; conditions: ATCC26, medium pH 7, read-out: Minimum Inhibitory Concentration
Protocol: as §1

[12] = test system: human ovarian cancer strain A2780 tumor; assay: Antitumor activity on human ovarian cancer strain A2780; format: in vivo; conditions: 0.38 mg/kg, once into tail vein; nude mice (BALB/C-nu/nu); 14 days after injection; [V/V0]/[C/C0]
Protocol: Nude mice (BALB/C-nu/nu) were used herein, which were grouped into plural groups, each group being comprised of 5 mice. A human ovarian cancer strain A2780 tumor (a piece of 8mm^3) was implanted into the subcutaneous tissue in the abdominal region of each mouse. After the implantation, when the tumor volume in each tumor-carrying mouse reached between 50 and 300 mm^3, a solution of UCH15B in physiological saline was injected once into the tail vein of each mouse (in the test group). Just before the injection of said UCH15B solution, the volume of the tumor (V0) in each mouse was measured. 14 days after the injection thereof, the volume of the tumor (V) therein was measured. Into each mouse in the control group, only physiological saline was injected. Just before the injection of physiological saline, the volume of the tumor (C0) in each mouse was measured. 14 days after the injection thereof, the volume of the tumor (C) therein was measured. The antitumor activity of the test compound, UCH15B was obtained according to the following equation.
Antitumor Activity=[V/V0]/[C/C0 ]
V: tumor volume (mm^3) in test group after the test
V0 : tumor volume (mm^3) in test group before the test
C: tumor volume (mm^3) in control group after the test
C0 : tumor volume (mm^3) in control group before the test

[13] = test system: sarcoma 180 tumor; assay: Antitumor activity on sarcoma 180 tumor; format: in vivo, male ddY mice; conditions: for Mean Tumor Volume: once into tail vein on day 1, measured on 7th day after implantation, ddY mice; for Antitumor Activity (T/C): once into tail vein, day 7, mean tumor volume test/control
Protocol: Male ddY mice were used herein, which were grouped into plural groups, each group being comprised of 5 mice. 5×10^6 sarcoma 180 tumor cells were implanted into the subcutaneous tissue in the axillary region of each mouse. On the 1st day after the implantation, a solution of UCH15B dissolved in physiological saline was injected once into the tail vein of each mouse. On the 7th day after the implantation, the mean tumor volume (mm^3) in each mouse was measured. […] Said antitumor activity was calculated according to the following equation.
=[mean tumor volume (mm^3) in mice in test group]/[mean tumor volume (mm^3) in mice in control group (to which was administered physiological saline only)]

SMILES | IC50 [1] [nM] | MIC [2] [µg/mL] | MIC [3] [µg/mL] | MIC [4] [µg/mL] | MIC [5] [µg/mL] | MIC [6] [µg/mL] | MIC [7] [µg/mL] | MIC [8] [µg/mL] | MIC [9] [µg/mL] | MIC [10] [µg/mL] | MIC [11] [µg/mL] | Antitumor Activity (T/C) [12] | Mean Tumor Volume ([13]; 0.094 mg/kg) [mm^3] | Antitumor Activity (T/C) ([13]; 0.094 mg/kg) | Mean Tumor Volume ([13]; 0.19 mg/kg) [mm^3] | Antitumor Activity (T/C) ([13]; 0.19 mg/kg) | Mean Tumor Volume ([13]; 0.38 mg/kg) [mm^3] | Antitumor Activity (T/C) ([13]; 0.38 mg/kg) | Mean Tumor Volume ([13]; 0.75 mg/kg) [mm^3] | Antitumor Activity (T/C) ([13]; 0.75 mg/kg)
N#CC(CC(=O)NC(C=O)C/C=C/CN)NC(=O)c1cc(NC(=O)c2cc(NC(=O)CNC(=N)N)c[nH]2)c[nH]1 (stereo not shown) [UCH15A] | 1200 | 0.16 (≈ 0.297 µM) | 2.6 (≈ 4.82 µM) | 2.6 (≈ 4.82 µM) | 0.02 (≈ 0.0371 µM) | 0.08 (≈ 0.148 µM) | 0.16 (≈ 0.297 µM) | 0.16 (≈ 0.297 µM) | > 50 | 10.4 (≈ 19.3 µM) | 0.16 (≈ 0.297 µM) | – | – | – | – | – | – | – | – | –
N#CC(CC(=O)NC(C=O)C/C=C/CN)NC(=O)c1cc(NC(=O)c2cc(NC(=O)CNC(N)=NO)c[nH]2)c[nH]1 (stereo not shown) [UCH15B] | 1000 | 0.33 (≈ 0.594 µM) | 10.4 (≈ 18.7 µM) | 5.2 (≈ 9.36 µM) | 0.04 (≈ 0.072 µM) | 0.33 (≈ 0.594 µM) | 0.33 (≈ 0.594 µM) | 0.33 (≈ 0.594 µM) | > 50 | > 41.7 | 0.08 (≈ 0.144 µM) | 0.27 | 1528 | 0.65 | 1405 | 0.60 | 1035 | 0.44 | 522 | 0.22
